Measurements published in patent publication US4064345A, “Cephalosporins derivatives 7-cyclized α-amino-3-heterothio” (Bristol-Myers Company, priority 1976, dated 1977).
≈ marks a conversion by molar mass, not a printed value. Entries after “also recorded” stand apart in the source; their conditions may differ.

Key:
Sal. enteritidis A9531 = test: Antibiotic spectrum in nutrient broth (MIC); format: cell-based; details: Salmonella enterica, 10^-4 dilution, BL-S1057/BL-S1058 adjusted for 80%/59% content of BL-S643
Excerpt: (§1) Antibiotic Spectrum of BL-S643 Derivatives in Nutrient Broth
(§2) **Dilution of overnight broth
(§3) ^(1) Adjusted for 80% content of BL-S643.
(§4) ^(2) Adjusted for 59% content of BL-S643.
(§5) In other words, the numerical values are lowered, i.e. improved. This

Pr. morganii A15153 = test: Antibiotic spectrum in nutrient broth (MIC); format: cell-based; details: Morganella morganii, 10^-4 dilution, BL-S1057/BL-S1058 adjusted for 80%/59% content of BL-S643
Excerpt: as §1, §2, §3, §4, §5

S. aureus BX1633 A9606 = test: Antibiotic spectrum in nutrient broth (MIC); format: cell-based; details: Staphylococcus aureus, BX1633A9606, nutrient broth, BL-S1057/BL-S1058 adjusted for 80%/59% content of BL-S643
Excerpt: as §1, §2, §3, §4, §5

K. pneumoniae A9977 = test: Antibiotic spectrum in nutrient broth (MIC); format: cell-based; details: Klebsiella pneumoniae, 10^-4 dilution, BL-S1057/BL-S1058 adjusted for 80%/59% content of BL-S643
Excerpt: as §1, §2, §3, §4, §5

Ent. cloacae A9659 = test: Antibiotic spectrum in nutrient broth (MIC); format: cell-based; details: Enterobacter cloacae, 10^-4 dilution, BL-S1057/BL-S1058 adjusted for 80%/59% content of BL-S643
Excerpt: as §1, §2, §3, §4, §5

K. pneumoniae A15130 = test: Antibiotic spectrum in nutrient broth (MIC); format: cell-based; details: Klebsiella pneumoniae, 10^-4 dilution, BL-S1057/BL-S1058 adjusted for 80%/59% content of BL-S643
Excerpt: as §1, §2, §3, §4, §5

Ent. cloacae A9656 = test: Antibiotic spectrum in nutrient broth (MIC); format: cell-based; details: Enterobacter cloacae, 10^-4 dilution, BL-S1057/BL-S1058 adjusted for 80%/59% content of BL-S643
Excerpt: as §1, §2, §3, §4, §5

Ser. marcescens A20019 = test: Antibiotic spectrum in nutrient broth (MIC); format: cell-based; details: Serratia marcescens, 10^-4 dilution, BL-S1057/BL-S1058 adjusted for 80%/59% content of BL-S643
Excerpt: as §1, §2, §3, §4, §5

Pr. mirabilis A9900 = test: Antibiotic spectrum in nutrient broth (MIC); format: cell-based; details: Proteus mirabilis, 10^-4 dilution, BL-S1057/BL-S1058 adjusted for 80%/59% content of BL-S643
Excerpt: as §1, §2, §3, §4, §5

Ps. aeruginosa A9843A = test: Antibiotic spectrum in nutrient broth (MIC); format: cell-based; details: Pseudomonas aeruginosa
Excerpt: as §1, §2, §3, §4, §5

E. coli A9675 = test: Antibiotic spectrum in nutrient broth (MIC); format: cell-based; details: Escherichia coli, 10^-4 dilution, BL-S1057/BL-S1058 adjusted for 80%/59% content of BL-S643
Excerpt: as §1, §2, §3, §4, §5

[1] = system: S. aureus Meth-Res A15097; test: Antibiotic spectrum in nutrient broth (MIC); format: cell-based; details: Staphylococcus aureus, 10^-3 dilution, BL-S1057/BL-S1058 adjusted for 80%/59% content of BL-S643
Excerpt: as §1, §2, §3, §4, §5

S. aureus Smith A9537 = test: Antibiotic spectrum in nutrient broth (MIC); format: cell-based; details: Staphylococcus aureus, 10^-4 dilution, BL-S1057/BL-S1058 adjusted for 80%/59% content of BL-S643
Excerpt: as §1, §2, §3, §4, §5

E. coli Juhl A15119 = test: Antibiotic spectrum in nutrient broth (MIC); format: cell-based; details: Escherichia coli, JUHLA15119, 10^-4 dilution, BL-S1057/BL-S1058 adjusted for 80%/59% content of BL-S643
Excerpt: as §1, §2, §3, §4, §5

Ent. cloacae A9657 = test: Antibiotic spectrum in nutrient broth (MIC); format: cell-based; details: Enterobacter cloacae, 10^-4 dilution, BL-S1057/BL-S1058 adjusted for 80%/59% content of BL-S643
Excerpt: as §1, §2, §3, §4, §5

S. pneumoniae A9585 = test: Antibiotic spectrum in nutrient broth (MIC); format: cell-based; details: Streptococcus pneumoniae, 10^-3 dilution of overnight broth culture, 45% AAB + serum + 50% broth, BL-S1057/BL-S1058 adjusted for 80%/59% content of BL-S643
Excerpt: as §1
(§6) *45% AAB + serum + 50% broth listed above.
as §2, §3, §4, §5

Str. pyogenes A9604 = test: Antibiotic spectrum in nutrient broth (MIC); format: cell-based; details: Streptococcus pyogenes, 10^-3 dilution of overnight broth culture, 45% AAB + serum + 50% broth, BL-S1057/BL-S1058 adjusted for 80%/59% content of BL-S643
Excerpt: as §1, §6, §2, §3, §4, §5

[2] = Paper chromatograms of rat urine after IM administration (antibiotically active metabolites); format: in vivo; details: urine 0-2 and 2-4 hours; for Antibiotically active metabolites in rat urine (spots on paper chromatogram): descending chromatography system No. 9
Experimental: Paper chromatograms were run on rat urine collected between 0 and 2 and between 2 and 4 hours following IM administration of BL-S1057, 1058 and 643, for the detection of antibiotically active metabolites using descending chromatography with system No. 9 (butyl acetaten-butanol:glacial acetic acid:H2 O = 80:15:40:24).

[3] = Paper strip chromatography (hydrolysis to BL-S643); format: physicochemical; details: 0 and 1 hour at 37° C.; 0.2 mg./ml.
Solubility in water = format: physicochemical
Experimental: d. Solubility = >400 mg./ml. in water

[4] = Liquid chromatography, % hydrolyzed in buffer; format: physicochemical; details: 1 mg./ml.
Experimental: f. Liquid chromatography = 100% hydrolyzed in pH 6.1 buffer within 1 hour at room temperature (concentration = 1 mg./ml.)
d. Liquid chromatography (1 mg./ml. in pH 6 buffer)

[5] = Bio-assay (using cefatrizine as the standard); format: cell-based
Excerpt: a. Bio-assay (using cefatrizine as the standard) = 759 mcg./mg.
a. Bio-assay (using cefatrizine as the standard) = 685 mcg./mg.

[6] = SMITHA9537, nutrient broth +50% serum
[7] = SMITHA9537, nutrient broth, no serum

Compound | MIC (Sal. enteritidis A9531) [µg/mL] | MIC (Pr. morganii A15153) [µg/mL] | MIC (S. aureus BX1633 A9606; 10^-2 dilution) [µg/mL] | MIC (S. aureus BX1633 A9606; 10^-3 dilution) [µg/mL] | MIC (K. pneumoniae A9977) [µg/mL] | MIC (Ent. cloacae A9659) [µg/mL] | MIC (K. pneumoniae A15130) [µg/mL] | MIC (Ent. cloacae A9656) [µg/mL] | MIC (Ser. marcescens A20019) [µg/mL] | MIC (Pr. mirabilis A9900) [µg/mL] | MIC (Ps. aeruginosa A9843A) [µg/mL] | MIC (E. coli A9675) [µg/mL] | MIC [1] [µg/mL] | MIC (S. aureus Smith A9537; [6]) [µg/mL] | MIC (S. aureus Smith A9537; [7]) [µg/mL] | MIC (E. coli Juhl A15119) [µg/mL] | MIC (Ent. cloacae A9657) [µg/mL] | MIC (S. pneumoniae A9585) [µg/mL] | MIC (Str. pyogenes A9604) [µg/mL] | Antibiotically active metabolites in rat urine (spots on paper chromatogram) [2] | further results
Cc1nnc(SCC2=C(C(=O)O)N3C(=O)C(NC(=O)[C@H](N)c4ccc(O)cc4)C3SC2)s1 (some centres unmarked) [BL-S643, reference compound] | 0.25 (≈ 0.506 µM) | 16 (≈ 32.4 µM) | 4 (≈ 8.1 µM) | 1 (≈ 2.03 µM) | 0.5 (≈ 1.01 µM) | 32 (≈ 64.8 µM) | 4 (≈ 8.1 µM) | > 125 | 125 (≈ 253 µM) | 0.5 (≈ 1.01 µM) | > 125 | 4 (≈ 8.1 µM) | 4 (≈ 8.1 µM) | 8 (≈ 16.2 µM) | 0.5 (≈ 1.01 µM) | 1 (≈ 2.03 µM) | 4 (≈ 8.1 µM) | 0.03 | 0.016 | A single, identical spot | 
Cc1nnc(SCC2=C(C(=O)O)N3C(=O)C(N4C(=O)[C@@H](c5ccc(O)cc5)NC4c4ccco4)C3SC2)s1 (some centres unmarked) [BL-S1057] | 0.25 (≈ 0.437 µM) | 16 (≈ 28 µM) | 4 (≈ 7 µM) | 1 (≈ 1.75 µM) | 0.5 (≈ 0.875 µM) | 16 (≈ 28 µM) | 4 (≈ 7 µM) | > 125 | 125 (≈ 219 µM) | 0.5 (≈ 0.875 µM) | > 125 | 4 (≈ 7 µM) | 2 (≈ 3.5 µM) | 8 (≈ 14 µM) | 0.5 (≈ 0.875 µM) | 1 (≈ 1.75 µM) | 0.5 (≈ 0.875 µM) | 0.016 | 0.008 | A single, identical spot | Paper strip chromatography zones [3]: Primarily 1 zone at Rf of BL-S643; Hydrolysis to parent compound (BL-S643) [2]: complete hydrolysis; solubility (Solubility in water): > 400 mg/mL; degraded at 1 h ([4]; within 1 hour, pH 6.1 buffer, room temperature): 100%; Bio-assay [5]: 759 µg/mg
Cc1nnc(SCC2=C(C(=O)O)N3C(=O)C(N4C(=O)[C@@H](c5ccc(O)cc5)NC4c4ccc(S(=O)(=O)O)o4)C3SC2)s1 (some centres unmarked) [BL-S1058] | 0.13 (≈ 0.199 µM) | 16 (≈ 24.6 µM) | 4 (≈ 6.14 µM) | 0.5 (≈ 0.767 µM) | 0.5 (≈ 0.767 µM) | 16 (≈ 24.6 µM) | 2 (≈ 3.07 µM) | > 125 | 125 (≈ 192 µM) | 0.5 (≈ 0.767 µM) | > 125 | 2 (≈ 3.07 µM) | 2 (≈ 3.07 µM) | 8 (≈ 12.3 µM) | 0.25 (≈ 0.384 µM) | 1 (≈ 1.53 µM) | 0.5 (≈ 0.767 µM) | 0.016 | 0.008 | A single, identical spot | Paper strip chromatography zones [3]: Primarily 1 zone at Rf of BL-S643; also recorded: evidence of a second zone; Hydrolysis to parent compound (BL-S643) [2]: complete hydrolysis; % Hydrolyzed ([4]; 0 hours, pH 6 buffer): 25.4%; degraded at 1 h ([4]; 1 hour, pH 6 buffer): 46.5%; degraded at 2 h ([4]; 2 hours, pH 6 buffer): 59%; Bio-assay [5]: 685 µg/mg
